Assay results taken from US6455755B2, “Leukotriene B4 receptor transgenic mice” (Brigham and Women's Hospital, priority 1999, dated 2002).

Legend:
[1] = tested on: PMN infiltration into ear skin; experiment: Ear skin inflammation model (topical application, PMN infiltration by MPO); assay type: in vivo, mouse; details: for percent inhibition of LTB4-induced PMN infiltration: 10 μg topical 5 min before LTB4 1 μg; for increase in PMN infiltration into skin compared to vehicle control: LTB4 1 μg topical to ear, MPO
Description: Ear skin inflammation model. hBLTR transgenic and wt mice were anesthetized and 16-phenoxyl-LXA4 (15(S)-16-phenoxy-17,18,19,20-tetranol-LXA4 methyl ester, prepared by total synthesis as in ref. 7 by Prof. N. A. Petasis and colleagues, Dept. of Chemistry, Univ. of Southern California) (10 μg) in 10 μl of acetone was applied to the inner side of right ears. Acetone alone was applied to the left ear as a vehicle control. Five min later, LTB4 (5S, 12R-dihydroxy-6,8,10,14-eicosatetraenoic acid; 1 μg) in 10 μl acetone was applied to both ears. Ear skin punch biopsies were collected for leukocyte MPO activity (Takano, T., Clish, C. B., Gronert, K., Petasis, N. A. and Serhan C. N. 1997. Neutrophil-mediated changes in vascular permeability are inhibited by topical application of aspirin-triggered 15-epi-lipoxin A4 and novel lipoxin B4 stable analogues. J. Clin. Invest. 101: 819-826).

[2] = tested on: PMN infiltration into lungs; experiment: Hind limb ischemia-reperfusion induced second organ injury (lung PMN infiltration by MPO); assay type: in vivo, mouse; details: hBLTR transgenic mice
Text: Hind limb ischemia-reperfusion induced second organ injury. Mice were anesthetized and ATL analog 15-epi-16-para-fluoro-phenoxy-LXA4 (15(R)-16-para-fluoro-phenoxy-17,18,19,20-tetranol-LXA4 methyl ester), prepared as in (Takano, T., Clish, C. B., Gronert, K., Petasis, N. A. and Serhan C. N. 1997. Neutrophil-mediated changes in vascular permeability are inhibited by topical application of aspirin-triggered 15-epi-lipoxin A4 and novel lipoxin B4 stable analogues. J. Clin. Invest. 101: 819-826) or vehicle was administered intravenously to the transgenic mice. Approximately five minutes later, a tourniquet was placed proximally around each hind limb and secured with a metal clamp (Goldman, G., Welboum, R., Klausner, J. M., Kobzik, L., Valeri, C. R. et al. 1992. Mast cells and leukotrienes mediate neutrophil sequestration and lung edema after remote ischemia in rodents. Surgery 112: 578-586). Vascular occlusion was verified by engorgement and discoloration of the feet. After 3 hours of ischemia, the tourniquets were removed and followed by 3 hours of reperfusion. […] The left lungs were harvested, homogenized in 1.5 ml of potassium phosphate buffer (pH 7.4) and then centrifuged at 14,000 rpm (5 min). […]

[3] = tested on: HEK293 cells with BLTR and ALXR (stable transfectants); experiment: Cytosensor microphysiometry of extracellular acidification rate (EAR) in HEK293 cells with BLTR and ALXR; assay type: cell-based, human; details: LXA4 1 μM 20 min prior to LTB4 1 μM
Description: (§1) Cloning and functional expression of hBLTR. Total RNA was isolated from retinoic acid differentiated HL-60 cells using TriZol reagent (GIBCO BRL, Grand Island, N.Y.) and reverse-transcribed for 30 min at 50° C. followed by 40 cycles of polymerase chain reactions (PCR) using Vent DNA polymerase (New England BioLabs, Beverly, Mass.) (98° C. for 1 min, 60° C. for 1 min and 72° C. for 2 min) with specific primers for hBLTR (BLTR-N: 5′[…]-3′ and BLTR-C: 5′[…]-3′) (Fiore, S., Romano, M., Reardon, E. M. and Serhan, C. N. 1993. Induction of functional lipoxin A4 receptors in HL-60 cells. Blood 81: 3395-3403). HBLTR cDNA was inserted into pGL vector (Promega) at HindII-PpuMI site downstream of CD11b promoter. HEK293 cells were transfected with this pGL-CD11b-hBLTR construct using SuperFect reagent (Qiagen, Chatsworth, Calif.). Ligand binding and intracellular Ca^2+ release were carried out as in refs. (Yokomizo, T., Izumi, T., Chang, K., Takuwa, Y. and Shimizu, T. 1997. A G-protein-coupled receptor for leukotriene B4 that mediates chemotaxis. Nature 387: 620-624) and (Ng, C. F., Sun, F. F., Taylor, B. M., Wolin, M. S. and Wong, P. Y. 1991. Functional properties of guinea pig eosinophil leukotriene B4receptors. J. Immunol. 147: 3096-3103), respectively. […]

BLTR [4] = molecular target: T1, BLTR (Homo sapiens, UniProt Q15722); experiment: Displacement of specific [3H]-LTB4 binding in HEK293 cells stably transfected with BLTR; set-up: expressed in transfected cells
Description: as §1

BLTR [5] = molecular target: T1, BLTR; experiment: Intracellular Ca2+ mobilization in HEK293 cells transfected with pGL-CD11b-hBLTR; assay type: cell-based; set-up: expressed in transfected cells; host or cells: HEK293 (transient transfection with pGL-CD11b-hBLTR, SuperFect); details: LTB4 100 nM; transiently transfected HEK293 cells

T1 sequence (Q15722 whole entry): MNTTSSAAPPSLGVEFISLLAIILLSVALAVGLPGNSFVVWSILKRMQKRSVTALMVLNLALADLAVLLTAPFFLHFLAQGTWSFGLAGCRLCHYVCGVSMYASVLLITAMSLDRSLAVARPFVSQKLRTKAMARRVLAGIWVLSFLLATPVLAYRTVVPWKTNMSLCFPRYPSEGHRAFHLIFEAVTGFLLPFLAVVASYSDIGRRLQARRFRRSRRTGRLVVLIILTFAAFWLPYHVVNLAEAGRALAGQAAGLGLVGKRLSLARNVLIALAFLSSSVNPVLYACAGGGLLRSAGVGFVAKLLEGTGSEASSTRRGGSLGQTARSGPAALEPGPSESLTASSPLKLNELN

What does the source list for `COC(=O)CCC[C@H](O)[C@H](O)C=CC=CC=CC=C[C@H](O)COc1ccccc1` [LXA4 stable analog, 15(S)-16-phenoxy-17,18,19,20-tetranol-LXA4 methyl ester]?
number of PMN whose infiltration was inhibited, hBLTR transgenic relative to wt mice ([1]; MPO activities converted to total number of PMN, 10 μg topical): 3 times; percent inhibition of LTB4-induced PMN infiltration ([1]; hBLTR transgenic mice): ~45%; effect on PMN infiltration ([1]; hBLTR transgenic mice, 10 μg topical, representative data from n=3): clearly able to block PMN infiltration; percent inhibition of LTB4-induced PMN infiltration ([1]; wt mice): ~37%

With `COC(=O)CCC[C@H](O)[C@H](O)C=CC=CC=CC=C[C@@H](O)COc1ccc(F)cc1` [ATL, 15(R)-16-para-fluoro-phenoxy-17,18,19,20-tetranol-LXA4 methyl ester] as the compound, how does the “PMN infiltration into lungs vs vehicle” value ([2]; 10 μg intravenous prior to ischemia-reperfusion, p=0.04, n=3) read?
The value was “significantly diminished PMN infiltration into lungs”.

And the “inhibition of PMN infiltration (change)” value ([2]; intravenous prior to ischemia-reperfusion)?
Its value is 40-60%.

What does the source list for `CCCCC[C@H](O)/C=C/C=C\C=C\C=C\[C@@H](O)[C@@H](O)CCCC(=O)O` (relative stereo) [LXA4, 5(S), 6(R), 15(S)-trihydroxy-7,9,13-trans-11-cis eicosatetraenoic acid]?
effect on LTB4-evoked extracellular acidification rate [3]: nor did LXA4 or its analogs affect LTB4-evoked extracellular acidification rate; competition with [3H]-LTB4 binding (BLTR [4]): did not compete with [^3H]-LTB4 binding

How did the “mobilization of intracellular Ca2+” value (BLTR [5]) turn out when `CCCCCC=CC[C@@H](O)C=CC=CC=C[C@@H](O)CCCC(=O)O` [LTB4, 5S, 12R-dihydroxy-6,8,10,14-eicosatetraenoic acid, reference compound] was run?
The value was “intracellular Ca^2+ was mobilized”.

What about the “increase in PMN infiltration into skin compared to vehicle control” value ([1]; hBLTR transgenic mice, n=10) of the same compound?
The value was 7.4±0.9 fold.

And the “increase in PMN infiltration into skin compared to vehicle control” value ([1]; wt mice, n=7)?
The value was 3.2±0.5 fold.
